Data as given in US6852531B2, “Compositions and methods for reproducing and modulating mammalian messenger RNA decapping” (University of Medicine & Dentistry of NJ, priority 2000, dated 2005).

Key:
[1] = system: decapping activity in HeLa S100 cytoplasmic extract; assay: In vitro decapping assay (release of 7meGDP from cap-labeled RNA, TLC); assay type: biochemical, human; details: for effect of competitor RNA on decapping of AU-rich element-containing RNA substrate: FIG. 6; for activation of decapping in human cytoplasmic extract: cold cap analog added to standard S100 extract
Description: In one embodiment of a manual procedure, the components are as follows (referred to herein as “standard reaction conditions”): • 1 microliter ^7meGpppG or ^7meGTP competitor (50-500 ng/microliter); • 1 microliter RNA (˜5-200 fmol; labeled at the alpha phosphate of the cap); • 4 microliters S100 extract; and • 4 microliters water.
The mixture is incubated at 30° C. for 30 min; aliquots are then taken at designated time points to follow the kinetics of decapping by visualization of the product of decapping, ^7meGDP, by, for example, thin layer chromatography on a cellulose PEI sheet using a mobile phase of 0.45 M ammonium sulfate. Other means for identifying the decapping product are fully embraced herein.
Decapping assays were performed using conditions adapted from Zhang et al (1999b). 10-50 fmoles of cap-labeled RNAs were incubated with 4 microliters HeLa S100 cytoplasmic extract in a 10 microliter reaction in the presence of CE buffer (50 mM Tris pH 7.9, 30 mM (NH4)2SO4, 1 mM MgCl2) and 20 micromolar cap analog (where indicated). Reaction mixtures were incubated at 30° C. for the times indicated and stopped by the addition of 1 microliter of 0.25 M EDTA. Reaction products were separated and identified by thin layer chromatography on PEI cellulose sheets developed in 450 mM (NH4)2SO4. Quantitation was performed using a Molecular Dynamics Phosphorimager. Twenty micrograms of ^7meGMP and ^7meGDP were routinely spotted on TLC plates along with reaction samples to serve as markers that could be visualized by UV shadowing.

HuR = target: T1, HuR (Homo sapiens, UniProt Q15717); assay: UV cross-linking of ARE-binding proteins with ARE competitor RNA; details: S100 extract
T1 construct: endogenous in cells; host or cells: HeLa spinner cells, S100 cytoplasmic extract
T1 sequence (Q15717 whole entry): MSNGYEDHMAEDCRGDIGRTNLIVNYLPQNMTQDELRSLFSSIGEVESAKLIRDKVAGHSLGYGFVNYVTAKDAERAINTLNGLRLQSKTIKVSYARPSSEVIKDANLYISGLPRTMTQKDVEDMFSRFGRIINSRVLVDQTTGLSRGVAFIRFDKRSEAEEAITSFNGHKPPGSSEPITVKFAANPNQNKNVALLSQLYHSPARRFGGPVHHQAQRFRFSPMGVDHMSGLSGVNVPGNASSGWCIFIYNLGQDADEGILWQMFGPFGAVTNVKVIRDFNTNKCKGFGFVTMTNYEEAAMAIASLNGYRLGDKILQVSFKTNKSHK
Description: (§1) UV cross-linking analysis was performed as described (Wilusz and Shenk, 1988). Briefly, 20-50 fmoles of cap-radiolabeled RNA was incubated in the in vitro decapping assay for 5 min. and then reaction mixtures were irradiated on ice for 10 min. using a 15W germicidal light. RNases A and T1 were added and proteins covalently attached to short radioactive RNA oligomers were analyzed on a 10% acrylamide gel containing SDS. For analysis of UV cross-linked DAN/PARN protein by immunoprecipitation using a polyclonal antibody obtained from M. Wormington (Korner et al., 1998), 400 ul of NET2 buffer (50 mM Tris pH 7.6, 150 mM NaCl, 0.01% NP40) was added to reaction mixtures following RNase treatment and reaction mixtures were centrifuged for 4 min. Pre-cleared samples were incubated on ice with 2-5 microliters of specified rabbit polyclonal antisera for 1 hr. Antigen antibody complexes were collected on protein A-positive Staphylococcus aureus cells, washed five times in RIPA buffer (50 mM Tris, pH 7.6, 150 mM NaCl, 0.1% SDS, 1% NP40, 0.5% deoxycholate), and immunoprecipitated cross-linked proteins were analyzed on a 10 or 15% acrylamide gel containing SDS.

[2] = system: unidentified 40 kDa species (ARE-specific RNA binding protein); assay: as above; parameters: species or system human; details: S100 extract
Description: as §1

deadenylase DAN/PARN = target: T2, deadenylase DAN/PARN (Homo sapiens, UniProt O95453); assay: UV cross-linking / immunoprecipitation of DAN/PARN; assay type: binding
T2 construct: incubated HeLa S100 extracts using cap-labeled GemARE-A60 RNA under decapping conditions; endogenous in cells; host or cells: HeLa spinner cells, S100 cytoplasmic extract
T2 sequence (O95453 1-639): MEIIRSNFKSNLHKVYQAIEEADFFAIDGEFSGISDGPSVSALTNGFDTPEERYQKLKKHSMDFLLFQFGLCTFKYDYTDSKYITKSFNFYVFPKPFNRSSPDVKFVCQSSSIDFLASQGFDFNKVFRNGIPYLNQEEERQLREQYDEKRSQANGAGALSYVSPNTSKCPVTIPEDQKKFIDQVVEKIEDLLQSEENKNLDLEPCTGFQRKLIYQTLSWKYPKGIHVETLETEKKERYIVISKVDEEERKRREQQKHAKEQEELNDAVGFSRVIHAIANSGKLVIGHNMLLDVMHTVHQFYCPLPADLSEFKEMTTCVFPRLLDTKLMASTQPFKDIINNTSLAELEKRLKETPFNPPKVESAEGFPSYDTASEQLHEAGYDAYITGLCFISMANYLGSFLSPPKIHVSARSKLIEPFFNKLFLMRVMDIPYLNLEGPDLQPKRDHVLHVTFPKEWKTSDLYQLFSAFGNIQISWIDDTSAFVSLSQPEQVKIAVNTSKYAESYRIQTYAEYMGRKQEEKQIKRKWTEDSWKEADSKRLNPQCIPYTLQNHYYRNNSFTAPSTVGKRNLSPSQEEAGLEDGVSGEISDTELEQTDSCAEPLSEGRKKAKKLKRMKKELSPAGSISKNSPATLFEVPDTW
Description: as §1

[3] = target: T3, 24 kDa cap binding protein (eIF4E) (Homo sapiens, UniProt P06730); assay: UV cross-linking of cap-labeled RNA to cap-binding proteins
T3 construct: endogenous in cells; host or cells: HeLa spinner cells, S100 cytoplasmic extract
T3 sequence (P06730 whole entry): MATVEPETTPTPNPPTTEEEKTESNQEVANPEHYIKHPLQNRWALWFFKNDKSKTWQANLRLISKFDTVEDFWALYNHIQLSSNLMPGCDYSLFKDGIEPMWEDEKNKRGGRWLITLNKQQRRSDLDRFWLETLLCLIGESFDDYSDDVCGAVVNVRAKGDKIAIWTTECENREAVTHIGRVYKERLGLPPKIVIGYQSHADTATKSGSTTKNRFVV
Description: as §1

[4] = 5 micromolar cap analog, FIG. 2D
[5] = titration, GemARE-A0 RNA, FIG. 2D

## 5′-GGAUUAACUAAUUGAUACCGCGUAUACACGCGG (RNA, backbone not given here) [control competitor RNA]
[1]; with cap analog
  effect of competitor RNA on decapping of AU-rich element-containing RNA substrate: no effect on decapping efficiency

## 5′AUUAUUUAUUAUUUAUUUAUUAUUUAUUUAUUUA (RNA, backbone not given here) [ARE competitor RNA]
HuR
  competition of HuR cross-linking: competed
[2]
  competition of 40 kDa species cross-linking: competed
[1]; Gem-A0 versus GemARE-A0, FIG. 6B
  substrate dependence of the reduction in decapping efficiency: only observed with RNA substrates that contained an AU-rich element
[1]; with cap analog
  effect of competitor RNA on decapping of AU-rich element-containing RNA substrate: significantly reduced decapping

## Nc1nc2c(ncn2[C@@H]2O[C@H](COP(=O)(O)OP(=O)(O)OP(=O)(O)OC[C@H]3O[C@@H](n4cnc5c(=O)[nH]c(N)nc54)[C@H](O)[C@@H]3O)[C@@H](O)[C@H]2O)c(=O)[nH]1 [GpppG]
[1]; HeLa S100, cap-labeled GemARE-A60 RNA, FIG. 2A
  ability of methylated versus non-methylated cap analogs to activate decapping: the presence of the methyl group on the cap analog was absolutely required to activate decapping

## Cn1c[n+]([C@@H]2O[C@H](COP(=O)([O-])OP(=O)(O)OP(=O)(O)O)[C@@H](O)[C@H]2O)c2nc(N)[nH]c(=O)c21 [^7meGTP]
[1]
  activation of decapping in human cytoplasmic extract: activates the human cytoplasmic extract

## Cn1c[n+]([C@@H]2O[C@H](COP(=O)(O)OP(=O)(O)OP(=O)(O)OC[C@H]3O[C@@H](n4cnc5c(=O)[nH]c(N)nc54)[C@H](O)[C@@H]3O)[C@@H](O)[C@H]2O)c2nc(N)[nH]c(=O)c21 [^7meGpppG]
Deadenylase DAN/PARN; [4]
  full sequestration of DAN/PARN: not
Deadenylase DAN/PARN; FIG. 2C
  competition for cap binding by DAN/PARN: specifically competed
Deadenylase DAN/PARN; FIG. 2D
  amount required to fully sequester DAN/PARN: 10 µM
[3]; [4]
  sequestration of 24 kDa cap binding protein: fully sequestered
[3]; increasing amounts, HeLa S100, FIG. 2B
  competition for cross-linking of 24 kDa protein to cap: specifically competed
[1]; 20 micromolar, 3 independently prepared HeLa cytoplasmic extracts, FIG. 1B
  activation of decapping of RNA substrates (accumulation of 7meGDP): activated decapping
[1]
  activation of decapping in human cytoplasmic extract: activates the human cytoplasmic extract
[1]; [5]
  amount of cap analog giving only partial activation of decapping: 5 micromolar
  amount of cap analog required for full activation of decapping: 10 micromolar

## poly(C)
[1]; all RNA substrates tested, with cap analog, FIG. 4B
  effect of other homopolymer on decapping: did not appreciably affect decapping
